± gives the standard deviation of the averaged measurements.
Compound: COc1ccc([C@@H](O)c2cc(-c3ncnc4cc(N5CCOCC5)ccc34)c(F)cc2Cl)nn1 [peposertib]
Test: relative cell growth vs untreated control (GI, NCI-DTP normalisation with time-zero) (fraction of control growth); higher = more growth / less inhibition
Details: treatment time: 120 h
Protocol: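 Cancer cell lines were treated with peposertib (DNA-PK inhibitor) combined with gamma ionizing radiation (0, 2, 3 or 6 Gy) for 120 h, starting 48 h after seeding. Read-out was sulforhodamine B total-protein staining, normalised to untreated control and time-zero wells (NCI-DTP GI convention).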

[1] = peposertib concentration 0.00488 µM, gamma irradiation dose (Gy): 0
[2] = peposertib concentration 0.0195 µM, gamma irradiation dose (Gy): 0
[3] = peposertib concentration 0.0781 µM, gamma irradiation dose (Gy): 0
[4] = peposertib concentration 0.313 µM, gamma irradiation dose (Gy): 0
[5] = peposertib concentration 1.25 µM, gamma irradiation dose (Gy): 0
[6] = peposertib concentration 5 µM, gamma irradiation dose (Gy): 0
[7] = peposertib concentration 0.00488 µM, gamma irradiation dose (Gy): 3
[8] = peposertib concentration 0.0195 µM, gamma irradiation dose (Gy): 3
[9] = peposertib concentration 0.0781 µM, gamma irradiation dose (Gy): 3
[10] = peposertib concentration 0.313 µM, gamma irradiation dose (Gy): 3
[11] = peposertib concentration 1.25 µM, gamma irradiation dose (Gy): 3
[12] = peposertib concentration 5 µM, gamma irradiation dose (Gy): 3

Test System KASUMI1 has a relative cell growth [1] of 0.984, a relative cell growth [2] of 0.968 and a relative cell growth [3] of 0.859. For the same test system, the relative cell growth [4] was 0.577, the relative cell growth [5] was 0.181 and the relative cell growth [6] was -0.0751.
With L363 the relative cell growth [1] was 0.996, the relative cell growth [2] was 1 and the relative cell growth [3] was 0.98. It also gave a relative cell growth [4] of 0.813, a relative cell growth [5] of 0.39 and a relative cell growth [6] of 0.0471.
LOVO was tested, and the relative cell growth [1] was 1.01 ± 0.055, the relative cell growth [7] was 0.384 and the relative cell growth [2] was 0.946 ± 0.026. The relative cell growth [8] was 0.357, the relative cell growth [3] was 0.83 ± 0.068 and the relative cell growth [9] was 0.28. It also gave a relative cell growth [4] of 0.617 ± 0.11, a relative cell growth [10] of 0.186 and a relative cell growth [5] of 0.348 ± 0.083. The relative cell growth [11] was 0.0588, the relative cell growth [6] was 0.16 ± 0.064 and the relative cell growth [12] was 0.00966.
MDAMB231 was tested, and the relative cell growth [1] was 1.11, the relative cell growth [2] was 1.1 and the relative cell growth [3] was 1.06. The relative cell growth [4] was 1.04, the relative cell growth [5] was 0.995 and the relative cell growth [6] was 0.84.
MDAMB435 gave a relative cell growth [1] of 0.989, a relative cell growth [2] of 1.03 and a relative cell growth [3] of 1.02. The relative cell growth [4] was 0.924, the relative cell growth [5] was 0.721 and the relative cell growth [6] was 0.207.
Test System MDAMB436 has a relative cell growth [1] of 1.04, a relative cell growth [2] of 0.987 and a relative cell growth [3] of 0.992. For the same test system, the relative cell growth [4] was 0.795, the relative cell growth [5] was 0.541 and the relative cell growth [6] was 0.188.
MDAMB468 gave a relative cell growth [1] of 1.04, a relative cell growth [2] of 0.969 and a relative cell growth [3] of 0.942. For the same test system, the relative cell growth [4] was 0.794, the relative cell growth [5] was 0.556 and the relative cell growth [6] was 0.222.
Test System MHHES1 has a relative cell growth [1] of 0.994, a relative cell growth [2] of 0.99 and a relative cell growth [3] of 0.974. It also gave a relative cell growth [4] of 0.915, a relative cell growth [5] of 0.776 and a relative cell growth [6] of 0.458.
Work on MIAPACA2 yielded a relative cell growth [1] of 1.05 ± 0.024, a relative cell growth [7] of 0.592 and a relative cell growth [2] of 1.07 ± 0.072. For the same test system, the relative cell growth [8] was 0.546, the relative cell growth [3] was 1.01 ± 0.022 and the relative cell growth [9] was 0.286. For the same test system, the relative cell growth [4] was 0.991 ± 0.07, the relative cell growth [10] was 0.086 and the relative cell growth [5] was 0.891 ± 0.18. It also gave a relative cell growth [11] of 0.0368, a relative cell growth [6] of 0.611 ± 0.18 and a relative cell growth [12] of 0.0246.
Work on MINO yielded a relative cell growth [1] of 0.833, a relative cell growth [2] of 0.904 and a relative cell growth [3] of 0.937. The relative cell growth [4] was 0.73, the relative cell growth [5] was 0.326 and the relative cell growth [6] was 0.0668.
With MT3 the relative cell growth [1] was 0.994, the relative cell growth [2] was 0.98 and the relative cell growth [3] was 0.951. The relative cell growth [4] was 0.828, the relative cell growth [5] was 0.415 and the relative cell growth [6] was 0.0961.
Test System MV411 has a relative cell growth [1] of 0.937, a relative cell growth [2] of 0.935 and a relative cell growth [3] of 0.924. The relative cell growth [4] was 0.793, the relative cell growth [5] was 0.383 and the relative cell growth [6] was 0.0939.
NCIH82 was tested, and the relative cell growth [1] was 0.982 ± 0.048, the relative cell growth [7] was 0.219 and the relative cell growth [2] was 1.016 ± 0.0085. It also gave a relative cell growth [8] of 0.187, a relative cell growth [3] of 0.988 ± 0.034 and a relative cell growth [9] of 0.11. It also gave a relative cell growth [4] of 0.892 ± 0.15, a relative cell growth [10] of 0.0372 and a relative cell growth [5] of 0.718 ± 0.24. The relative cell growth [11] was 0.0097, the relative cell growth [6] was 0.422 ± 0.055 and the relative cell growth [12] was 0.000329.
Test System NCIH292 has a relative cell growth [1] of 0.959 ± 0.031, a relative cell growth [7] of 0.526 and a relative cell growth [2] of 1.017 ± 0.0086. It also gave a relative cell growth [8] of 0.511, a relative cell growth [3] of 0.924 ± 0.039 and a relative cell growth [9] of 0.357. It also gave a relative cell growth [4] of 0.684 ± 0.078, a relative cell growth [10] of 0.21 and a relative cell growth [5] of 0.33 ± 0.064. It also gave a relative cell growth [11] of 0.0579, a relative cell growth [6] of 0.00769 ± 0.042 and a relative cell growth [12] of -0.0162.
NCIH358M showed a relative cell growth [1] of 1.004 ± 0.01, a relative cell growth [7] of 0.299 and a relative cell growth [2] of 0.975 ± 0.03. It also gave a relative cell growth [8] of 0.27, a relative cell growth [3] of 0.963 ± 0.03 and a relative cell growth [9] of 0.182. The relative cell growth [4] was 0.869 ± 0.1, the relative cell growth [10] was 0.181 and the relative cell growth [5] was 0.695 ± 0.16. The relative cell growth [11] was 0.108, the relative cell growth [6] was 0.345 ± 0.078 and the relative cell growth [12] was 0.0702.
In the case of NCIH460, the relative cell growth [1] is reported as 1.05 ± 0.025, the relative cell growth [7] is reported as 0.302 and the relative cell growth [2] is reported as 1.04 ± 0.02. The relative cell growth [8] was 0.384, the relative cell growth [3] was 1.02 ± 0.025 and the relative cell growth [9] was 0.181. For the same test system, the relative cell growth [4] was 0.934 ± 0.16, the relative cell growth [10] was 0.0919 and the relative cell growth [5] was 0.661 ± 0.37. The relative cell growth [11] was 0.044, the relative cell growth [6] was 0.177 ± 0.11 and the relative cell growth [12] was 0.0283.
Work on OVCAR3 yielded a relative cell growth [1] of 0.907, a relative cell growth [2] of 0.952 and a relative cell growth [3] of 0.919. For the same test system, the relative cell growth [4] was 0.739, the relative cell growth [5] was 0.372 and the relative cell growth [6] was 0.0464.
OVCAR4 was tested, and the relative cell growth [1] was 1.03, the relative cell growth [2] was 1.01 and the relative cell growth [3] was 0.983. The relative cell growth [4] was 0.875, the relative cell growth [5] was 0.858 and the relative cell growth [6] was 0.633.
With PANC1 the relative cell growth [1] was 0.969, the relative cell growth [2] was 0.974 and the relative cell growth [3] was 0.956. It also gave a relative cell growth [4] of 0.92, a relative cell growth [5] of 0.741 and a relative cell growth [6] of 0.411.
In the case of PC3, the relative cell growth [1] is reported as 1.04, the relative cell growth [2] is reported as 1 and the relative cell growth [3] is reported as 0.971. For the same test system, the relative cell growth [4] was 0.781, the relative cell growth [5] was 0.532 and the relative cell growth [6] was 0.262.
PLCPRF5 was tested, and the relative cell growth [1] was 1.01, the relative cell growth [2] was 0.969 and the relative cell growth [3] was 0.974. For the same test system, the relative cell growth [4] was 0.898, the relative cell growth [5] was 0.807 and the relative cell growth [6] was 0.586.
RAMOS gave a relative cell growth [1] of 1.06, a relative cell growth [2] of 0.987 and a relative cell growth [3] of 0.927. For the same test system, the relative cell growth [4] was 0.736, the relative cell growth [5] was 0.377 and the relative cell growth [6] was 0.129.
For RD, the relative cell growth [1] was 0.929, the relative cell growth [2] was 0.97 and the relative cell growth [3] was 0.942. The relative cell growth [4] was 0.94, the relative cell growth [5] was 0.826 and the relative cell growth [6] was 0.455.
With RDES the relative cell growth [1] was 0.935, the relative cell growth [2] was 0.961 and the relative cell growth [3] was 0.971. The relative cell growth [4] was 0.785, the relative cell growth [5] was 0.57 and the relative cell growth [6] was 0.24.
In the case of SAOS2, the relative cell growth [1] is reported as 0.945, the relative cell growth [2] is reported as 0.983 and the relative cell growth [3] is reported as 0.946. The relative cell growth [4] was 0.82, the relative cell growth [5] was 0.458 and the relative cell growth [6] was 0.0757.
SF268 was tested, and the relative cell growth [1] was 1.01, the relative cell growth [2] was 0.994 and the relative cell growth [3] was 0.943. It also gave a relative cell growth [4] of 0.867, a relative cell growth [5] of 0.747 and a relative cell growth [6] of 0.516.

Reference: the supplement of paper PMC10721915
